# Source: patent US6323315A, “Dolastatin peptides” (priority 2000, dated 2001)
# Columns and labels:
# tubulin = settings: cited from earlier work
# [1] = test system: human lymphoma cell lines; settings: cited from earlier work
# [2] = test system: P388 lymphocytic leukemia (PS system) cell line; settings: cited from earlier work
# A498 (renal cancer) = experiment: in vitro cytotoxicity, cultured cancer cell panel: A498; assay type: cell-based, Human; settings: for GI-50: A498, renal, 48 hours; for LC-50 / TGI: A498; for LC-50: -50% growth; for TGI: total growth inhibition (0% growth)
# Method: (§1) Compounds prepared according to Examples 1-14 above were evaluated for in vitro cytotoxicity against a panel of cultured cancer cells, including the cell lines OVCAR-3 (ovarian cancer), SF-295 (central nervous system), A498 (renal cancer), NCI-H460 (non-small lung carcinoma), KM20L2 (colon cancer) and SK-MEL-5 (melanoma). For each cell line, each compound was tested at 5 concentrations, 100 μg/mL, 10 μg/mL, 1 μg/mL, 0.1 μg/mL and 0.01 μg/mL. Percent growth values were calculated for each concentration, and the two or three concentrations with growth values above, below or near 50% growth (relative to control) were used to calculate the ED50 value using a linear regression calculation. In cases in which 50% growth inhibition was not observed for any of the concentrations, the ED50 value was expressed as ED50 >100 μg/mL. If the growth inhibition was greater than 50% for each concentration, the ED50 was expressed as <0.01 μg/mL. Similar calculations were performed for total growth inhibition (TGI; 0% growth) and LC50 (-50% growth).
# (§2) At the start of each experiment, cells from the in vitro cell culture were inoculated into tubes or microtiter plates. One set of control tubes/plates was immediately counted to determine the cell count at the beginning of the experiment. This is the "baseline count" or T0 reading. After 48 hours, a second set of control tubes/plates is analyzed to determine the control growth value. The growth or death of cells relative to the T0 value is used to define the percent growth.
# [3] = test system: NCI-H460 (non-small lung carcinoma); experiment: in vitro cytotoxicity, cultured cancer cell panel: NCI-H460; assay type: cell-based, Human; settings: for GI-50: NCI-H460, lung-NSC, 48 hours; for LC-50 / TGI: NCI-H460; for LC-50: -50% growth; for TGI: total growth inhibition (0% growth)
# Method: as §1, §2
# KM20L2 (colon cancer) = experiment: in vitro cytotoxicity, cultured cancer cell panel: KM20L2; assay type: cell-based, Human; settings: for GI-50: KM20L2, colon, 48 hours; for LC-50 / TGI: KM20L2; for LC-50: -50% growth; for TGI: total growth inhibition (0% growth)
# Method: as §1, §2
# SK-MEL-5 (melanoma) = experiment: in vitro cytotoxicity, cultured cancer cell panel: SK-MEL-5; assay type: cell-based, Human; settings: for GI-50: SK-MEL-5, melanoma, 48 hours; for LC-50 / TGI: SK-MEL-5; for LC-50: -50% growth; for TGI: total growth inhibition (0% growth)
# Method: as §1, §2
# [4] = test system: P-388 Lymphocytic Leukemia; experiment: Murine P-388 lymphocytic leukemia cell line inhibition; assay type: cell-based; settings: P-388 mouse leukemia
# OVCAR-3 (ovarian cancer) = experiment: in vitro cytotoxicity, cultured cancer cell panel: OVCAR-3; assay type: cell-based, Human; settings: for GI-50: OVCAR-3, ovarian, 48 hours; for TGI / LC-50: OVCAR-3; for TGI: total growth inhibition (0% growth); for LC-50: -50% growth
# Method: as §1, §2
# [5] = test system: SF-295 (central nervous system); experiment: in vitro cytotoxicity, cultured cancer cell panel: SF-295; assay type: cell-based, Human; settings: for GI-50: SF-295, CNS, 48 hours; for LC-50 / TGI: SF-295; for LC-50: -50% growth; for TGI: total growth inhibition (0% growth)
# Method: as §1, §2
Substance,tubulin polymerization (tubulin),growth of four different human lymphoma cell lines [1],GI-50 (A498 (renal cancer)) [µg/mL],LC-50 (A498 (renal cancer)) [µg/mL],TGI (A498 (renal cancer)) [ng/mL],GI-50 [3] [µg/mL],LC-50 [3] [µg/mL],TGI [3] [ng/mL],GI-50 (KM20L2 (colon cancer)) [µg/mL],LC-50 (KM20L2 (colon cancer)) [µg/mL],TGI (KM20L2 (colon cancer)) [ng/mL],GI-50 (SK-MEL-5 (melanoma)) [µg/mL],LC-50 (SK-MEL-5 (melanoma)) [µg/mL],TGI (SK-MEL-5 (melanoma)) [ng/mL],ED50 [4] [ng/mL],GI-50 (OVCAR-3 (ovarian cancer)) [µg/mL],TGI (OVCAR-3 (ovarian cancer)) [ng/mL],GI-50 [5] [µg/mL],LC-50 (OVCAR-3 (ovarian cancer)) [µg/mL],LC-50 [5] [µg/mL],further results
Dolastatin 10,effectively inhibit,effectively inhibit,–,–,–,–,–,–,–,–,–,–,–,–,–,–,–,–,–,–,–
Dolastatin 15,effectively inhibit,effectively inhibit,–,–,–,–,–,–,–,–,–,–,–,–,–,–,–,–,–,–,growth of P388 lymphocytic leukemia (PS system) cell line [2]: inhibits the growth
Dov-Val-Dil-Dap 1-bicyclo[3.3.0]octane amide [Compound 13b],–,–,0.002,> 0.01,> 10,0.00047,> 0.01,> 10,0.00036,> 0.01,> 10,0.0007,> 0.01,> 10,2.2,–,–,–,–,–,–
Dov-Val-Dil-Dap 2-[p-aminophenyl]ethylamide [Compound 29d],–,–,> 0.01,–,–,0.00013,–,0.87,4.9e-05,–,> 10,0.00023,–,–,0.338,5e-05,0.79,0.00053,–,–,–
Dov-Val-Dil-Dap-Met 1-(bicyclo[3.3.0]octane) Amide [Compound 12d],–,–,0.00048,> 0.01,> 10,0.00029,> 0.01,4,0.0003,> 0.01,0.9,0.00044,> 0.01,> 10,–,0.00031,> 10,0.00047,> 0.01,> 0.01,TGI [5]: > 10 ng/mL
Dov-Val-Dil-Dap-Phe Amide [Compound 28d],–,–,3.4e-06,> 0.0001,> 0.1,4.1e-07,> 0.0001,> 0.1,2e-07,> 0.0001,0.0041,5.6e-07,> 0.0001,> 0.1,0.00255,3e-07,0.011,6.1e-07,> 0.0001,> 0.0001,TGI [5]: > 0.1 ng/mL
